US20250073210A1, “Use of Ergothioneine for Enhancing Glutathione Level” (priority 2022, published 2025)

What was measured:
total GSH [1] = assay: Example 3: oral L-ergothioneine 5, 15, 30 mg/day on plasma glutathione in healthy humans; format: in vivo, human
Text: A Baseline will be established looking at Total and Percent Reduced Glutathione. These same values will be measured at the end of the four weeks. Subjects will be contacted once a week while in the study for an assessment of compliance with intervention.
Study Population: Male and female subjects 25-75 years of age Number of Subjects: 5, assigned as follows: 1 subject will receive the GSH administered orally once weekly for 4 weeks; 1 subject will receive S-acetyl-glutathione supplemented orally once daily for 4 weeks; 3 subjects will receive 5, 15, 30 mg L-ergothioneine supplemented orally once daily for 4 weeks, respectively.
• 1. Individuals must be between 25-70 years of age with no known medical conditions that, in the investigator's opinion, may interfere with study participation. • 2. Subjects must present with mild to moderate signs oxidative stress or inflammation. • 3. Willingness to cooperate and participate by following Study requirements. • 4. Individuals must sign informed consent, photo release consent and confidentiality agreement.
• 1. […] Individuals currently taking certain medications or any dietary supplements, which in the opinion of the investigator might interfere with the study. This would include but not be limited to routine high dosage use of anti-inflammatory drugs (aspirin, ibuprofen, corticosteroids) immunosuppressive drugs or antihistamine medications), and insulin, anti-hypertensive drugs, and especially antioxidants. • 3. Individuals with uncontrolled metabolic diseases such as diabetes (Type I and II), hypertension, hyperthyroidism or hypothyroidism, severe chronic asthma, immunological disorders such as HIV positive, AIDS and systemic lupus erythematosus or mastectomy for cancer involving removal of lymph nodes. • 4. Women known to be pregnant, nursing or planning to become pregnant. • 5. Individuals participating in other clinical studies evaluating antioxidants or anti-inflammatory interventions.

[2] = test system: body stores of glutathione; conditions: oral 250 or 1000 mg/day, cited from earlier work
total GSH [3] = assay: Example 2: oral L-ergothioneine on plasma glutathione in healthy humans; format: in vivo, human; conditions: Example 2, 200 mg orally once daily, single subject

SMILES | % change from baseline in total GSH (total GSH [1]; Example 3, 1400 mg orally once weekly for 4 weeks, single subject, baseline 653 μM) | Natural killer cell cytotoxicity ([2]; at six months) | Oxidized (GSSG) to reduced (GSH) glutathione ratio in whole blood ([2]; at six months) | Body stores of glutathione ([2]; six months, 54 non-smoking adults) | % change from baseline in total GSH (total GSH [3]) | Total GSH at Day 30 (total GSH [3]; baseline 727 μM) | Total GSH at Day 30 (total GSH [1]; Example 3, 200 mg orally once daily, single subject, baseline 733 μM) | Total GSH at Day 30 (total GSH [1]; Example 3, second sentence on a single subject with comparator intervention (see doubts)) | % change from baseline in total GSH (total GSH [1]; Example 3, single subject)
N[C@@H](CCC(=O)N[C@@H](CS)C(=O)NCC(=O)O)C(=O)O [glutathione] | −23% | favorable increases | improvement | significant increases | – | – | – | – | –
CC(=O)SC[C@H](NC(=O)CC[C@H](N)C(=O)O)C(=O)NCC(=O)O [SAG, S-acetyl-glutathione] | – | – | – | – | −25% | 547 µM | 461 µM | 503 µM | −37%
